The target of this experiment is T1, NMDA receptor in erythrocytes (Homo sapiens, UniProt Q05586).
T1 construct: Potassium and calcium fluxes through the NMDA receptor in erythrocytes of healthy donors (C) and patients with sickle cell anemia; endogenous in cells; host or cells: freshly isolated human erythrocytes (HbSS patients and healthy donors)
The experiment can be described thus: Unidirectional K+ (86Rb) and Ca2+ (45Ca) fluxes via the cation channel of the NMDA receptor, radioactive tracer kinetics. The following applies: for NMDA- and PGE2-sensitive increase in fluxes: stimulated by NMDA (100 μM) or prostaglandine E2 (2 μM), blocker added. In kind it is cell-based. The protocol: FIGS. 2A and 2B: Potassium and calcium fluxes through the NMDA receptor in erythrocytes of healthy donors (C) and patients with sickle cell anemia (H). 2A: Unidirectional K^+ influx measured in chloride-free Na-methane sulfate medium in the presence of 100 μM ouabain, the inhibitor of […]. Conditions corresponding to the numbers at the X axis: (1) control; (2) 50 μM memantine chloride (Sigma-Aldhdge); (3) 100 μM NMDA; (4) NMDA+memantine chloride; (5) 2 μM prostaglandine E2 (PGE2); (6) PGE2+memantine chloride. * denotes p<0.05 compared to the corresponding values in healthy donor's erythrocytes, # stands for p<0.05 compared to the corresponding non-treated control. Data are means±SEM for 6-7 individuals. 2B: Unidirectional Ca^2+ influx in erythrocytes of a single HbSS patient measured on 3 different occasions and in three healthy donors. Conditions indicated in numbers at the X axis are: (1) non-treated control; (2) 100 μM NMDA; (3) 100 μM NMDA and 50 μM MK-801. * denotes p<0.05 compared to the corresponding healthy donors' samples.
The following experiments were conducted using fresh-isolated human erythrocytes of HbSS patients and healthy subjects.
Fluxes via the nonselective cation channel of the NMDA receptor were assessed using radioactive tracer kinetics. 86Rb was used as a radioactive tracer for K^+ and 45Ca as a tracer for Ca^2+. Fluxes through the red cell membrane were measures in the medium containing (mM) 145 Na-methane sulfate, 4 K-gluconate, 1 Ca-gluconate, 10 sucrose, 10 glucose and 10 HEPES-Tris (pH 7.4) in the presence of 100 μM L-arginine and 100 μM ouabain. Details of the flux measurement may be found elsewhere (e.g. Bogdanova et al., J Membr Biol. 2003; 195(1):33-42).

Consider four compounds from patent publication US8680042B2, “Methods of treating sickle cell anemia-related conditions with MK-801 or memantine” (Universität Zürich Prorektorat MNW, priority 2009, dated 2014).

For the compound `C[C@]12N[C@H](Cc3ccccc31)c1ccccc12` [MK-801, Dizocilpine], the “NMDA- and PGE2-sensitive increase in fluxes” value is reported as “could be blocked”.
`CN[C@H](CC(=O)O)C(=O)O` [NMDA, N-methyl D-aspartate]: where the note is “agonist 100 μM”, the “Fluxes of both cations (K+ and Ca2+)” value is listed as “further stimulated”.
Regarding `CC12CC3CC(C)(C1)CC(N)(C3)C2` [memantine, Memantine], the “NMDA- and PGE2-sensitive increase in fluxes” value is on record as “could be blocked”.
Turning to `CCCCC[C@H](O)/C=C/[C@H]1[C@H](O)CC(=O)[C@@H]1C/C=C\CCCC(=O)O` [prostaglandine E2], the “Fluxes of both cations (K+ and Ca2+)” value (agonist 2 μM) is “further stimulated”.
